Laboratory results reported in US9725703B2, “Formulations and methods for stabilizing PCR reagents” (BIOMATRICA, INC., priority 2012, dated 2017).

Target: T1, Roche FastStart Taq polymerase (Thermus aquaticus, UniProt P19821)
T1 construct: purchased Roche
Assay: Multiplex end-point PCR (GAPDH) with stabilized Roche FastStart Taq after storage
Type: biochemical
Settings: 3 weeks at 45° C.; polymerase mixed 1:4 with stabilizer; FIG. 1b
Procedure: Roche FastStart Taq polymerase (stored at −20° C. in 50% glycerol) was mixed in a 1:4 ratio with a range of liquid stabilizer solutions as set forth in Table 4 and incubated at both room temperature and 45° C. A non-protected sample was also included where the polymerase was mixed with an additional quantity of its storage buffer. At various time points, aliquots were taken from the stabilized enzyme solutions and used to perform end-point PCR assays. At each time point, the stabilized enzymes were compared to a frozen positive control enzyme in the same assay.
For end-point PCR, a multiplex assay using three primer sets to generate 3 different size fragments of the GAPDH gene was used. Typical PCR reactions contained the following: 1× Roche PCR reaction buffer, 10 ng human genomic DNA, 300 μM dNTPs, 240 nM GAPDH primer set A, 600 nM GAPDH primer set B, 1.2 μM GAPDH primer set C, and 1 unit Roche FastStart Taq polymerase. Cycling conditions were 2 minutes at 95° C. followed by 35 cycles of 30 seconds at 95° C., 30 seconds at 56° C., 30 seconds at 68° C., followed by 5 minutes at 68° C. PCR products were run on 2% agarose gels and visualized using ethidium bromide.

T1 sequence (P19821 whole entry): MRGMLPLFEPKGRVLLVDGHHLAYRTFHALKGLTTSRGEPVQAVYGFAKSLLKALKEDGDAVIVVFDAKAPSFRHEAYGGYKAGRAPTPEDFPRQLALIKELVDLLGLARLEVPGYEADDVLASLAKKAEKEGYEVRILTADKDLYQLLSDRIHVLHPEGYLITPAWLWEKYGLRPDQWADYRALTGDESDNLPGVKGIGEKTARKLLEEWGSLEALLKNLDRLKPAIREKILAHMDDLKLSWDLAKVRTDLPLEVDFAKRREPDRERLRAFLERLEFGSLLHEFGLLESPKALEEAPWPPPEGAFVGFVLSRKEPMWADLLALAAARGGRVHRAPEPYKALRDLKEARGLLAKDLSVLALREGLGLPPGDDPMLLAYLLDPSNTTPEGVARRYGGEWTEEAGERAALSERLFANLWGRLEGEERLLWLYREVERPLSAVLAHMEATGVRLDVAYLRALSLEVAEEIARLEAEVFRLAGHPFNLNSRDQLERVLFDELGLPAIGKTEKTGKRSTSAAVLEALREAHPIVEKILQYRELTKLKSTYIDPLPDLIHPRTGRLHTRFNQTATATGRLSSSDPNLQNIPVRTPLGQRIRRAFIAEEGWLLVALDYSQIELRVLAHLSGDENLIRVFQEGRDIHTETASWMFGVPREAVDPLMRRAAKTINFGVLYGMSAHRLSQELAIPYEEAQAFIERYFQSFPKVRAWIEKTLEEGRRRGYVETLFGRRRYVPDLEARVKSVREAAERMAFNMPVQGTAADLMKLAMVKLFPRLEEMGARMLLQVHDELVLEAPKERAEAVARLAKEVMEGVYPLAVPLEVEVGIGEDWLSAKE

C[N+]1(CCC(=O)[O-])CCC(O)CC1 (stereo not shown) [Compound 102, 3-(4-hydroxy-1-methylpiperidinium-1-yl)propanoate]
polymerase activity after storage (end-point PCR): provides increased stability
